Results on one compound are retold here after patent publication US8299049B2, “Compositions comprising an extract of Tiarella polyphylla or compounds isolated therefrom for preventing and treating cancer diseases” (Korea Institute of Bioscience and Biotechnology, priority 2007, dated 2012).

Series [1] deals with TM4SF5-expressing SNU449Tp cells. Kind of series: Inhibitory effect on growth of TM4SF5-expressing cell. The series is classed as cell-based. The method, then:
After virus infection, pooled stable clones (control SNU449Cp and TM4SF5-expressing SNU449Tp cell clones) and single cell-driven stable clones (TM4SF5-expressing SNU449T16) were prepared by infecting SNU449 hepatocytes (Korean Cell Bank, Seoul, Korea) with retrovirus for empty pLNCX or pLNCX with TM4SF5. Parental and control cells (Cp) were maintained in RPMI-1640/10% FBS/0.25 μg/ml gentamycin (Calbiochem, San Diego, Calif.) without or with 200 μg/ml G418 (A.G. Scientific Inc., San Diego, Calif.), respectively, at 37° C. and 5% CO2. Cells endogenously expressing TM4SF5 or cells endogenously expressing no TM4SF5 (Korean Cell Bank) were maintained in either DMEM-H or RPMI-1640 media with 10% FBS (JBI Inc., Daegu, Korea).

Another series deals with TM4SF5. Kind of series: Effect of TA treatment on TM4SF5 expression of P, Cp, Tp and T16 cells. The series is classed as cell-based.
Series [2] concerns focal adhesion molecules in SNU449Cp cells expressing no TM4SF5. Kind of series: Immunoblot of focal adhesion molecule expression and activation, SNU449Cp. The series is classed as cell-based. The method, then: (§1) Whole cell lysates from cells under diverse experimental conditions were prepared, as described in the literature (Lee, S. Y. et al., Focal adhesion and actin organization by a cross-talk of TM4SF5 with integrin α2 are regulated by serum treatment, Exp Cell Res, 312, pp. 2983-99, 2006). For example, cells were subjected to electroporation (950 μF, 250 V) with a control GFP, wild-type focal adhesion kinase (FAK), paxillin, p130Cas cDNA. One day after electroporation, cells were treated with TA (20 μM) for the indicated periods. Cells cultured normally or treated with TA at different concentrations for the indicated periods were harvested using RIPA buffer. Control or tumor tissues from nude mice were frozen immediately after surgery using liquid N2. Tissues in the liquid N2 was homogenized using a mortar and pestle, and extracted using 0.1% SDS containing RIPA buffer. Standard Western blots of lysates were performed by using antibody against phospho-Y^397, Y^407, Y^577, Y^861, Y^925 FAK (BioSource International, Inc., Camarillo, Calif.), phospho-Y^416Src, c-Src, p15^INK4B, p16^INK4A (Santa Cruz Biotech., Santa Cruz, Calif.), FAK, p130Cas, paxillin, pY^118paxillin, active caspase-3 (BD Transduct. Lab., San Jose, Calif.), α-tubulin (Sigma, St Louis, Mo.), phopsho-S^473, or T^308Akt, Akt, phospho-Erk1/2, Erk1/2 (Cell Signaling Tech., Danvers, Mass.), and TM4SF5 (homemade). […]

In series [3] the test system is focal adhesion molecules in TM4SF5-expressing SNU449Tp cell line. Kind of series: Immunoblot of focal adhesion molecule expression and activation, SNU449Tp. The conditions noted are these: FIG. 11. The series is classed as cell-based. The method, then: as §1
For orientation: Immunoblotting shows a protein as a band on a membrane.

In series [4] the test system is Akt and caspase-3 in TM4SF5-expressing SNU449T16 cells. Kind of series: Western blotting of cell survival and death-related signaling molecules. The series is classed as cell-based. The conditions noted are these: various time periods. Here is the method:
FIG. 18 is the result of Western blotting of cell survival and death-related signaling molecules, after tiarellic acid (TA) treatment for various time periods;
Whole cell lysates from cells under diverse experimental conditions were prepared, as described in the literature (Lee, S. Y. et al., Focal adhesion and actin organization by a cross-talk of TM4SF5 with integrin α2 are regulated by serum treatment, Exp Cell Res, 312, pp. 2983-99, 2006). For example, cells were subjected to electroporation (950 μF, 250 V) with a control GFP, wild-type focal adhesion kinase (FAK), paxillin, p130Cas cDNA. One day after electroporation, cells were treated with TA (20 μM) for the indicated periods. Cells cultured normally or treated with TA at different concentrations for the indicated periods were harvested using RIPA buffer. Control or tumor tissues from nude mice were frozen immediately after surgery using liquid N2. Tissues in the liquid N2 was homogenized using a mortar and pestle, and extracted using 0.1% SDS containing RIPA buffer. […]

For series [5], the system named is SNU449Tp and SNU449T16 expressing TM4SF5. Kind of series: Analysis of cellular DNA content (sub-G1), TM4SF5-expressing cells. The series is classed as cell-based. The conditions noted are these: 20 μM TA, 24 hr. An excerpt:
FIG. 19 is the result of analyzing cellular DNA content, after tiarellic acid (TA) treatment;

In series [6] the test system is TM4SF5-expressing SNU449T16 cells tumors. Kind of series: TM4SF5-mediated tumor formation in nude mice. The series is classed as in vivo. Conditions: for tumor volumes decreased to: 30 days. The method, then: (§2) 4-5 week old female nude mice (BALB/cAnNCrjBgi-nu) were purchased from Orient. Co. Ltd. (Seongnam, Korea). The mice were housed in a specific pathogen-free room under controlled temperature and humidity. All animal procedures were performed in accordance with the procedures in Seoul National University Laboratory Animal Maintenance Manual and with IRB agreement. Mice aged 5-6 weeks were injected subcutaneously with 5×10^6 viable SNU449Cp or SNU449T16 cells. Tumor volumes were measured with a caliper and calculated using the following Mathematical Formula 1. When the tumor volume reached 200 mm^3, mice were injected intraperitoneally with 3 mg/kg or 30 mg/kg (body weight) of tiarellic acid (TA) every other day for 30 days. (Width×Length^2)/2 [Mathematical Formula 1]
Width: minimal diameter (mm)
Length: maximal diameter (mm)
(§3) To evaluate whether tiarellic acid (TA) administration might interfere with TM4SF5 mediated tumor formation in nude mice, the following experiment was performed as described in the literature (Lee S-A et al., TM4SF5-mediated transmodulation between cytosolic p27Kip1 and Rho GTPases and epithelial-mesenchymal transition cause loss of contact inhibition, Cancer Cell, 2007).

Series [7] is described as follows: Body weight and toxic side effects in tumor-bearing nude mice. The series is classed as in vivo. The conditions noted are these: 3 or 30 mg/kg i.p. every other day, 30 days. The method, then:
as §2, §3

For the compound `C=C(C)C1CC[C@]2(C)CC[C@]3(C(=O)O)C(CCC4[C@@]5(C)CC[C@H](O)[C@@](C)(CO)C5CC[C@]43C)C12` (stereo partly shown) [tiarellic acid (TA), 3,23-dihydroxy-20(29)-lupen-27-oic acid], the “number of TM4SF5-expressing cells” value in series [1] (FIG. 4, depending on concentration and time) was “decreased”. The “inhibitory effect on cell growth” value in series [1] (SNU449Tp, 5 μM, 3 days) was “inhibitory effect was observed”. Also, the “cell density and cell shape” value in series [1] (SNU449Tp, 20 μM, 3 days) is “reduced cell density and round shaped cells were observed”. Further, the “inhibitory effect on the growth of TM4SF5-expressing cell” value in series [1] (TA 0, 0.1, 5, 20 μM) is “inhibitory effect”. Also, the “expression level of TM4SF5” value in the series on TM4SF5 is “without affecting”. In addition, in series [2] (FIG. 11), the pErk1/2 entry is “slightly increased”. In series [2] (TA up to 20 μM, 24 hrs), the “FAK and paxillin phosphorylations and p130Cas protein levels” value is recorded as “no effect”. Moreover, in series [3], the “TM4SF5-dependent inhibitory effects on focal adhesion molecules” value is “inhibitory effects” and the pErk1/2 result is recorded as “slightly increased”. Moreover, the “Akt and caspase-3 activity” value in series [4] is “Akt inactivation and caspase-3 activation”. The “sub-G1 populations (cellular DNA content)” value in series [5] is “significant sub-G1 populations”. For the same compound, the “tumor volumes decreased to” value in series [6] (3 mg/kg body weight i.p. every other day) is on record as 46.0%. Further, the “tumor volumes decreased to” value in series [6] (30 mg/kg body weight i.p. every other day) stood at 22.1%. The TM4SF5-mediated tumor formation entry in series [6] (intraperitoneally every other day for 30 days, established tumors ~200 mm^3) was “decreased”. Also, in series [7], the body weight result is “increased normally” and the toxic side effects result is reported as “no significant toxic side effects”.
